Results on 14 compounds are retold here after patent US11584763B2, “Chromenopyridine derivatives as phosphatidylinositol phosphate kinase inhibitors” (HIBERCELL, INC., priority 2017, dated 2023).

What all share (type): biochemical
One assay has as its target T1, PIP4K2B (Homo sapiens, UniProt P78356).
T1 construct: made in house; host or cells: E. coli
T1 sequence (P78356 1-416): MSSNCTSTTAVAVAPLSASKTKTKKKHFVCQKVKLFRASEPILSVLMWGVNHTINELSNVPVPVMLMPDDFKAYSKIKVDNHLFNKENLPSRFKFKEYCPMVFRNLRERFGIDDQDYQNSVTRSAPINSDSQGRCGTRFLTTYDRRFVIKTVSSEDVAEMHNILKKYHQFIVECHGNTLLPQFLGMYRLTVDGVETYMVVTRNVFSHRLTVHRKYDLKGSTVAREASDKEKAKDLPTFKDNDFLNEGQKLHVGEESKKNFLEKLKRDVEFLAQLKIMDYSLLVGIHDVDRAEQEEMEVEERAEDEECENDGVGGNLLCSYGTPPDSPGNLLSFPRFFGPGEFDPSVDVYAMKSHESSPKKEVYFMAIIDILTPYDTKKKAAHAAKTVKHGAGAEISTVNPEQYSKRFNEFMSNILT
Put plainly: Trans-FI P kinase assay PIP4K2B (PIP4KtypeIIB inhibition assay). To be noted: compounds listed under IC50 bin headings; 100 uM GTP; read-out: Trans-FI P kinase assays: PIP4K2B IC50. The essentials: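 Transcreener FI fluorescence read-out of GDP formed by E. coli-expressed GST-PIP4K2B (5 nM) using 100 uM GTP and 80 uM PI5P with DOPE carrier lipid, pH 7.3, 2 h reaction. Compounds (up to 4.8 uM) were preincubated with enzyme 1 h at 27 C; IC50 fitted from residual activity relative to no-inhibitor control.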

In assay [1] the target is T2, PIP4K 2A (Homo sapiens, UniProt P48426).
T2 sequence (P48426 1-406): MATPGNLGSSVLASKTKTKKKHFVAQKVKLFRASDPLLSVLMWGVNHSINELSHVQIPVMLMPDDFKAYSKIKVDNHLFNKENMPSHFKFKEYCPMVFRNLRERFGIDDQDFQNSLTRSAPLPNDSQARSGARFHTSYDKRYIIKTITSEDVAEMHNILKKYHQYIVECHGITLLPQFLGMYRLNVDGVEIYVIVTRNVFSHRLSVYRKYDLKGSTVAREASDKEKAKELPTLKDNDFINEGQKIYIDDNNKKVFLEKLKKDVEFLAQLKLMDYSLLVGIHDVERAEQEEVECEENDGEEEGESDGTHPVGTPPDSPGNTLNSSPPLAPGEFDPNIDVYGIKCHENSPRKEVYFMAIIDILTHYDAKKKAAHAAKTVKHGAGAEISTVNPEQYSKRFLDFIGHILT
Description: Kinase Assay PIP4K2 A (PIP4KtypeIIA inhibition assay). Set-up: made in house; host or cells: E. coli. To be noted: compounds listed under IC50 bin headings. The text has this:
GST tagged PIP4KtypeIIA and B enzymes were overexpressed in E. Coli and purified to >80% homogeneity. Phosphatidyl inositol-5-phosphate (PI5P, Cat. #850152, Avanti Polar Lipids Inc.) was used as the lipid substrate and phosphatidyl ethanolamine (DOPE 18:1, Cat. #850725, Avanti Polar Lipids Inc.) was used as the carrier lipid for assays. Ultrapure ATP and GTP was purchased from Bellbrooke Labs. ADP Glo reagents were obtained from Promega. Transcreener FI reagent was obtained from Bellbrooke labs.
Enzyme preparation: GST-tagged PIP4KtypeIIA (5 uL, 1.43 mg/mL) was diluted (1:10) to 50 uL using HNE buffer. From the 1:10 diluted stock, a 6.4 uL aliquot was diluted further to 5 mL using HNE buffer to yield 5× enzyme stock (2.5 nM).
Lipid Preparation: In a 10 mL pyrex glass vial, 1 ug of PI5P and 1 ug of DOPE were suspended in 2.5 mL of HEPES buffer mix and 2.5 mL of H:E buffer. The contents were mixed and sonicated for 3 min to yield a translucent lipid stock.
Compound Preparation: Compounds were stored as 5 mM stocks in neat DMSO as room temperature in glass vials. 5 mM stocks were diluted to 2 mM and then serially diluted (3×) in neat DMSO in 96 well polypropylene plates. From the serially diluted stocks, 3 uL was delivered into 250 uL of 25% DMSO (in water) to generate 5× compound stocks. Typically, the highest compound conc. was 24 uM.
The assay volume was kept at 25 uL. To each well of the reaction plate, 10 uL of lipid stock (1:1 ratio PI5P:DOPE) was delivered. This was followed by the addition of 5 uL of compound in 25% DMSO. Then, to each well, 5 uL of 2.5 nM (5×) typeIIA enzyme was delivered. The contents were mixed well and incubated for 1 h at 27 C. After 1 h, reaction was initiated by adding 5 uL of 50 uM ATP and the contents were mixed well with a multi-channel pipetteman. The final concentration of the reagents are as follows: 50 mM HEPES, pH 7.3, 10 mM MgCl2, 20 mM NaCl, 0.01% v/v triton-X100, 5% DMSO, 10 uM ATP, 80 uM (2 ug) PI5P, 2 ug DOPE, and 0.5 nM PIP4KIIA. Typically, the highest conc. of compounds was 4.8 uM and the lowest conc. was 0.
After 1 hr, the reaction was quenched by adding 25 uL of ADP Glo reagent. The contents were incubated for 1 hr. Afterwards, 50 uL of kinase detection reagent was delivered. The contents were incubated for another hour. The luminescence was read using Molecular Devices Paradigm plate reader. […] The blanks were averaged and subtracted from all other wells. Using a calibration curve, RLU was converted to uM ADP (product). IC50 was calculated by plotting the residual activity (expressed as % No inhibitor control) vs. log [Inh. conc.]

Assay [2] concerns the target T2, PIP4K 2A. Description: ADP-glo kinase assay PIP4K 2A. Particulars: compounds listed under IC50 bin headings. Details: 4 nM PIP4K2A (full length protein, SignalChem); purchased SignalChem. The method, boiled down: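 Inhibition was calculated versus DMSO controls from ADP-Glo luminescence and fitted to IC50 over a 10-point, threefold series. Compound was first pre-incubated 15 min at room temperature with PIP4K2A (full-length; 4 nM in the enzyme/substrate mix) and PI(5)P diC8 (100 μM in that mix). The reaction then ran for 1 h after adding 60 μM ATP solution, in MOPS pH 7.2/MgCl2/Tween buffer.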

As for `CC1Oc2cc(N3CCCC3=O)ccc2-c2cnc(Nc3cncc(F)c3)cc21` (stereo not drawn) [Example 50, 1-(3-((5-fluoropyridin-3-yl)amino)-5-methyl-5H-chromeno[4,3-c]pyridin-8-yl)pyrrolidin-2-one], the IC50 at PIP4K2B was greater than 1 µM; against PIP4K 2A [1], 0.001 to 0.01 µM; against PIP4K 2A [2] it was 0.01 to 0.1 µM.
In the same order, the values of `CC1Oc2cc(N3CCCC3=O)ccc2-c2cnc(Nc3cncc(N(C4CC4)S(C)(=O)=O)c3)cc21` (stereo not drawn) [Example 51, N-cyclopropyl-N-(5-((5-methyl-8-(2-oxopyrrolidin-1-yl)-5H-chromeno[4,3-c]pyridin-3-yl)amino)pyridin-3-yl)methanesulfonamide] are 0.01 to 0.1 µM, no more than 0.001 µM and 0.001 to 0.01 µM.
As to `CC1Oc2cc(N3CCCC3=O)ccc2-c2cnc(Nc3cnc4c(c3)N(S(=O)(=O)C3CC3)CCO4)cc21` (stereo not drawn) [Example 52, 1-(3-((1-(cyclopropylsulfonyl)-2,3-dihydro-1H-pyrido[2,3-b][1,4]oxazin-7-yl)amino)-5-methyl-5H-chromeno[4,3-c]pyridin-8-yl)pyrrolidin-2-one], the IC50 was 0.1 to 1 µM at PIP4K2B, no more than 0.001 µM on PIP4K 2A [1] and 0.001 to 0.01 µM on PIP4K 2A [2].
In the same order, the values of `CC1Oc2cc(N3CCCC3=O)ccc2-c2cnc(Nc3cncc(N4CCN(C)C4=O)c3)cc21` (stereo not drawn) [Example 53, 1-methyl-3-(5-((5-methyl-8-(2-oxopyrrolidin-1-yl)-5H-chromeno[4,3-c]pyridin-3-yl)amino)pyridin-3-yl)imidazolidin-2-one] are 0.01 to 0.1 µM, no more than 0.001 µM and 0.001 to 0.01 µM.
In the same order, the values of `CC1Oc2cc(N3CCCC3=O)ccc2-c2cnc(Nc3cncc(N4CCCC4=O)c3)cc21` (stereo not drawn) [Example 54, 1-(5-methyl-3-((5-(2-oxopyrrolidin-1-yl)pyridin-3-yl)amino)-5H-chromeno[4,3-c]pyridin-8-yl)pyrrolidin-2-one] are 0.01 to 0.1 µM, no more than 0.001 µM and 0.001 to 0.01 µM.
Consider `CC1Oc2cc(N3CCCC3=O)ccc2-c2cnc(Nc3cncc(N4CCNC4=O)c3)cc21` (stereo not drawn) [Example 55, 1-(5-((5-methyl-8-(2-oxopyrrolidin-1-yl)-5H-chromeno[4,3-c]pyridin-3-yl)amino)pyridin-3-yl)imidazolidin-2-one], for which the IC50 on PIP4K2B is 0.01 to 0.1 µM; against PIP4K 2A [1] it was no more than 0.001 µM; on PIP4K 2A [2], 0.001 to 0.01 µM.
Take `CC1Oc2cc(N3CCCC3=O)ccc2-c2cnc(Nc3cncc(N4CCN(Cc5cscn5)C4=O)c3)cc21` (stereo not drawn) [Example 56, 1-(5-((5-methyl-8-(2-oxopyrrolidin-1-yl)-5H-chromeno[4,3-c]pyridin-3-yl)amino)pyridin-3-yl)-3-(thiazol-4-ylmethyl)imidazolidin-2-one]: the values for the IC50 at PIP4K2B, against PIP4K 2A [1] and at PIP4K 2A [2] were 0.001 to 0.01 µM, no more than 0.001 µM and no more than 0.001 µM, respectively.
Turning to `CC1Oc2cc(N3CCCC3=O)ccc2-c2cnc(Nc3cnc4ccn(S(C)(=O)=O)c4c3)cc21` (stereo not drawn) [Example 57, 1-(5-methyl-3-((1-(methylsulfonyl)-1H-pyrrolo[3,2-b]pyridin-6-yl)amino)-5H-chromeno[4,3-c]pyridin-8-yl)pyrrolidin-2-one], the half-maximal inhibitory concentration (IC50) at PIP4K2B was 0.01 to 0.1 µM; against PIP4K 2A [1] it was no more than 0.001 µM; against PIP4K 2A [2], 0.001 to 0.01 µM.
In the case of `CC1Oc2cc(N3CCCC3=O)ccc2-c2cnc(Nc3cnc4c(c3)N(C(=O)C3(O)CC3)CCO4)cc21` (stereo not drawn) [Example 58, 1-(3-((1-(1-hydroxycyclopropane-1-carbonyl)-2,3-dihydro-1H-pyrido[2,3-b][1,4]oxazin-7-yl)amino)-5-methyl-5H-chromeno[4,3-c]pyridin-8-yl)pyrrolidin-2-one], the IC50 is 0.001 to 0.01 µM on PIP4K2B, no more than 0.001 µM against PIP4K 2A [1] and no more than 0.001 µM against PIP4K 2A [2].
For the compound `CC1Oc2cc(N3CCCC3=O)ccc2-c2cnc(Nc3cnc4c(c3)N(C(=O)C(C)(C)O)CCO4)cc21` (stereo not drawn) [Example 59, 1-(3-((1-(2-hydroxy-2-methylpropanoyl)-2,3-dihydro-1H-pyrido[2,3-b][1,4]oxazin-7-yl)amino)-5-methyl-5H-chromeno[4,3-c]pyridin-8-yl)pyrrolidin-2-one], the IC50 at PIP4K2B is 0.001 to 0.01 µM; on PIP4K 2A [1] it was no more than 0.001 µM; against PIP4K 2A [2], no more than 0.001 µM.
Regarding `CC(O)C(=O)N1CCOc2ncc(Nc3cc4c(cn3)-c3ccc(N5CCCC5=O)cc3OC4C)cc21` (stereo not drawn) [Example 60, 1-(3-((1-(2-hydroxypropanoyl)-2,3-dihydro-1H-pyrido[2,3-b][1,4]oxazin-7-yl)amino)-5-methyl-5H-chromeno[4,3-c]pyridin-8-yl)pyrrolidin-2-one], the IC50 on PIP4K2B is 0.001 to 0.01 µM; at PIP4K 2A [1] it was no more than 0.001 µM; against PIP4K 2A [2] it was no more than 0.001 µM.
For the compound `CC1Oc2cc(N3CCCC3=O)ccc2-c2cnc(Nc3cnc4c(c3)N(C(=O)CO)CCO4)cc21` (stereo not drawn) [Example 61, 1-(3-((1-(2-hydroxyacetyl)-2,3-dihydro-1H-pyrido[2,3-b][1,4]oxazin-7-yl)amino)-5-methyl-5H-chromeno[4,3-c]pyridin-8-yl)pyrrolidin-2-one], the IC50 at PIP4K2B is 0.001 to 0.01 µM; against PIP4K 2A [1] it was no more than 0.001 µM; against PIP4K 2A [2], no more than 0.001 µM.
On to `CC1Oc2cc(N3CCCC3=O)ccc2-c2cnc(Nc3cnc4c(c3)OCCO4)cc21` (stereo not drawn) [Example 62, 1-(3-((2,3-dihydro-[1,4]dioxino[2,3-b]pyridin-7-yl)amino)-5-methyl-5H-chromeno[4,3-c]pyridin-8-yl)pyrrolidin-2-one], for which the IC50 on PIP4K2B was 0.01 to 0.1 µM; at PIP4K 2A [1], no more than 0.001 µM; against PIP4K 2A [2], 0.001 to 0.01 µM.
Consider `CC1Oc2cc(N3CCCC3=O)ccc2-c2cnc(Nc3cnc4nccnc4c3)cc21` (stereo not drawn) [Example 63, 1-(5-methyl-3-(pyrido[2,3-b]pyrazin-7-ylamino)-5H-chromeno[4,3-c]pyridin-8-yl)pyrrolidin-2-one], for which the IC50 on PIP4K2B is 0.1 to 1 µM; against PIP4K 2A [1], 0.001 to 0.01 µM; at PIP4K 2A [2] it was 0.001 to 0.01 µM.
